Test in all cases: DTP human tumour cell line panel, 48 h
The subject of assay [1] is TK-10 renal.
Assay [2] has as its system SK-OV-3 ovarian.
The test system of assay [3] is OVCAR-5 ovarian.
The subject of assay [4] is A498 renal.
Assay [5] relates to EKVX NSCLC.
The subject of assay [6] is UACC-257 melanoma.
Assay [7] relates to HS 578T breast.
Assay [8] concerns CCRF-CEM leukemia.
For assay [9], the system named is MDA-MB-231 breast.
Assay [10] has as its system SF-539 CNS.

This is an account of results in PubChem BioAssay (NCI).

Where “and” joins values, the source holds several entries; their conditions need not be identical. Equal entries are not always repeated.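 A five-concentration, 48-hour dose response in 96-well plates underlies each endpoint, interpolated linearly between surrounding concentrations. GI50 marks 50% less growth. Definition used: TGI = concentration required for complete inhibition of growth.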

On to `CCC/C(=N\NC(=S)N1CCN(c2ccccn2)CC1)c1ccccn1`, for which the GI50 is 1.09 µM in [1]; 1340 nM in [2]; 0.113 µM in assay [3]; 194 nM in [4]; 30.8 nM in assay [5]; below 1 nM in assay [8]. In [10], the GI50 was 150 nM and 145 nM. Further, the TGI in [1] is > 5.42 µM and 2.46 µM; in assay [2], 2150 nM and 2680 nM; in [3], above 4.36 µM; in [4], 3.93 µM and 1.36 µM; in [6], 0.224 µM and 1.87 µM; in assay [7], 3.76 µM. For the same compound, the TGI in [8] was 0.0216 µM and 0.0281 µM; in [9], 1.91 µM; in assay [10], 1.82 µM and 1.11 µM.

Turning to `CC(O)C1OC(O)C2OC(C)(C)OC12` (stereo not drawn), the TGI is above 100 µM in [1]; above 100000 nM in [2]; above 100 µM in [3]; above 100 µM in assay [4]; above 100 µM in [5]; above 100 µM in assay [6]. For the same compound, the TGI in assay [7], in assay [8], in assay [9] and in assay [10] was above 100 µM each time.

With `CC(C)C[C@@H](NC(=O)[C@@H](Cc1ccccc1)NC(=O)c1cnccn1)B1O[C@H]2[C@H](O)[C@@H](C(=O)NCCCC[C@@H]3NC(=O)[C@@H](Cc4ccccc4)NC(=O)[C@H](CC(=O)O)NC(=O)CNC(=O)[C@H](CCCN=C(N)N)NC3=O)O[C@@H](CN)[C@H]2O1`, the GI50 in [1] is 0.00308 µM and 0.005 µM; in assay [2] it was 35.4 nM and 14.8 nM; in [3], 0.0135 µM and 0.0196 µM; in assay [4] it was 3.09 nM and 5 nM; in [5] it was 23.9 nM and 17.1 nM; in assay [6], 0.0135 µM and 0.005 µM. Moreover, the concentration for 50% growth inhibition (GI50) in assay [7] was 4.13 nM and 5 nM; in assay [8] it was 3.47 nM and 5 nM; in assay [9], 12.4 nM and 8.28 nM; in assay [10] it was 3.19 nM and 5 nM. The total growth inhibition concentration (TGI) in assay [1] was 0.0249 µM and 0.00851 µM; in assay [2], 296 nM and 941 nM; in assay [3], 0.0978 µM and 0.799 µM; in assay [4], 0.0127 µM and 0.0106 µM; in assay [5], 0.568 µM and 0.545 µM; in assay [6] it was 0.0812 µM and 0.0183 µM. In addition, the TGI in [9] was 0.0574 µM and 0.0692 µM; in [10], 0.015 µM and 0.0123 µM.

On to `CN(C)CCCCN1CCc2c(n(C)c3ccccc23)C1=O`, for which the GI50 is > 100 µM and 38.8 µM in assay [1]; 54.1 µM and 24.2 µM in assay [3]; > 59000 nM and 19900 nM in assay [4]; 50500 nM and 21700 nM in assay [10]. Also, the TGI is above 100 µM in assay [1]; above 95000 nM in assay [2]; > 78.6 µM and 67.3 µM in assay [3]; > 85.1 µM and 49 µM in assay [4]; 85.9 µM and > 100 µM in [5]; 28.7 µM and 31.4 µM in assay [6]. The TGI in assay [7] is above 89.4 µM; in assay [8] it was above 100 µM; in [9], > 63.2 µM and 61.9 µM; in assay [10], 68.9 µM and 44 µM.

Regarding `Nc1c(C(=O)Nc2ccccc2)sc2nc3c(cc12)CCCCCC3`, the GI50 in [1] was 0.883 µM; in assay [2], 465 nM; in assay [3], 0.699 µM; in assay [4], 248 nM; in [5], 591 nM; in assay [6] it was 3.1 µM. In addition, the GI50 in [7] was 529 nM; in assay [8], 345 nM; in [9], 892 nM; in assay [10], 231 nM. Also, the TGI in assay [1] was determined as 5.2 µM; in [2] it was 3000 nM; in assay [3] it was 16.9 µM; in [4], 1.31 µM; in assay [5], 25.2 µM; in [6], 28.9 µM. In addition, the total growth inhibition concentration (TGI) in assay [7] was 9.64 µM; in assay [8] it was above 100 µM; in assay [9] it was 43.1 µM; in assay [10], 0.741 µM.

For the compound `COc1ccc(C(=O)Cn2c(C(=O)c3ccc(OC)cc3)nc3ccccc32)cc1`, the GI50 in [1] is 4.8 µM; in assay [2], 2960 nM; in [3], above 25.1 µM; in assay [4], 1640 nM; in assay [5], 18900 nM; in assay [6] it was 53 µM. In addition, the GI50 in assay [7] was 2140 nM; in assay [8] it was 1690 nM; in assay [9] it was 9230 nM; in [10] it was 2800 nM. In addition, the TGI is above 100 µM in [1]; above 100000 nM in [2]; above 100 µM in assay [3]; above 100 µM in assay [4]; above 100 µM in [5]; above 100 µM in assay [6]. Besides, the concentration for total growth inhibition (TGI) in assay [7] was above 28.5 µM; in assay [8], above 42.8 µM; in assay [9], above 100 µM; in assay [10], above 100 µM.

Turning to `O=C(Nc1ccc(S(=O)(=O)Nc2nccs2)cc1)c1cccnc1Nc1cccc(Cl)c1`, the GI50 in assay [1] was 22.8 µM; in assay [2], 20800 nM; in assay [3], 17.6 µM; in assay [4], 10100 nM; in [5] it was 18300 nM; in assay [6] it was 18.8 µM. The GI50 in assay [7] is 19500 nM; in [8], 23400 nM; in assay [9], 5730 nM; in assay [10] it was 16200 nM. The TGI in assay [1] is 51.1 µM; in assay [2] it was 58800 nM; in assay [3], 44.8 µM; in [4], 23.7 µM; in [5] it was above 100 µM; in assay [6] it was 43.6 µM. For the same compound, the total growth inhibition concentration (TGI) in [7] was 67.5 µM; in assay [8], above 100 µM; in [9] it was 21.4 µM; in assay [10] it was 44.5 µM.

As to `O=C1c2ccccc2-c2c1c1ccccc1c(=O)n2CCCNCCCn1c2c(c3ccccc3c1=O)C(=O)c1ccccc1-2`, the GI50 is 5.34 µM in assay [1]; 11700 nM in [2]; 3.04 µM in assay [3]; 8970 nM in assay [4]; 3980 nM in assay [5]; 10.2 µM in assay [6]. In addition, the GI50 was 9540 nM in assay [7], 12600 nM in assay [8], 1090 nM in assay [9] and 3830 nM in assay [10]. Further, the TGI in assay [1] worked out at 18 µM; in assay [2], 40500 nM; in [3], 6.08 µM; in assay [4] it was 17.4 µM; in assay [5], 14.8 µM; in assay [6], 25.7 µM. The TGI in assay [7] was 32.9 µM; in [8], above 50 µM; in assay [9], 4.25 µM; in [10], 13 µM.

Consider `Cc1cc2c(c3c1c1ccccc1n3C)C(=O)C=CC2=O`, for which the concentration for total growth inhibition (TGI) was 65 µM in assay [1]; above 100000 nM in [2]; above 100 µM in assay [3]; above 100 µM in assay [4]; above 100 µM in assay [5]; 69 µM in [6]. Further, the concentration for total growth inhibition (TGI) was 80.5 µM in assay [7], above 24 µM in assay [8], 75 µM in assay [9] and 71 µM in [10].

As a reminder, the GI50 is the concentration giving 50% growth inhibition. As a reminder, the TGI is the concentration giving total growth inhibition. A lower TGI goes with more potent growth arrest.
